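Five concentrations, 48 hours, 96-well plates. GI50 marks 50% less growth.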 Activity calls are given as the source filed them. No stated cut-off is given here; in the data, active = GI50 up to about 1.1 µM and inactive = higher.
Tests used:
Assay in all cases: NCI anticancer screen, dose series, 48 h
786-0 = tested on: 786-0
A498 = tested on: A498
A549 = tested on: A549
ACHN = tested on: ACHN
CAKI-1 = tested on: CAKI-1
CCRF-CEM = tested on: CCRF-CEM
COLO 205 = tested on: COLO 205
DLD-1 = tested on: DLD-1
DMS-114 = tested on: DMS-114
DMS-273 = tested on: DMS-273
EKVX = tested on: EKVX
HCC 2998 = tested on: HCC 2998
HCT-116 = tested on: HCT-116
HCT-15 = tested on: HCT-15
HL-60 = tested on: HL-60
HOP-18 = tested on: HOP-18
HOP-62 = tested on: HOP-62
HOP-92 = tested on: HOP-92
HT-29 = tested on: HT-29
IGROV-1 = tested on: IGROV-1
K562 = tested on: K562
KM-20L2 = tested on: KM-20L2
KM12 = tested on: KM12
LOX IMVI = tested on: LOX IMVI
LXFL 529 = tested on: LXFL 529
M14 = tested on: M14
M19-MEL = tested on: M19-MEL
MOLT-4 = tested on: MOLT-4
Malme-3M = tested on: Malme-3M
NCI-H226 = tested on: NCI-H226
NCI-H23 = tested on: NCI-H23
NCI-H460 = tested on: NCI-H460
NCI-H522 = tested on: NCI-H522
OVCAR-3 = tested on: OVCAR-3
OVCAR-4 = tested on: OVCAR-4
OVCAR-5 = tested on: OVCAR-5
OVCAR-8 = tested on: OVCAR-8
RXF 393 = tested on: RXF 393
RXF 631 = tested on: RXF 631
SF-268 = tested on: SF-268
SF-295 = tested on: SF-295
SF-539 = tested on: SF-539
SK-MEL-28 = tested on: SK-MEL-28
SK-MEL-2 = tested on: SK-MEL-2
SK-MEL-5 = tested on: SK-MEL-5
SK-OV-3 = tested on: SK-OV-3
SN12C = tested on: SN12C
SNB-19 = tested on: SNB-19
SNB-75 = tested on: SNB-75
SNB-78 = tested on: SNB-78
SR = tested on: SR
SW-620 = tested on: SW-620
TK-10 = tested on: TK-10
U-251 = tested on: U-251
UACC-257 = tested on: UACC-257
UACC-62 = tested on: UACC-62
UO-31 = tested on: UO-31
XF498 = tested on: XF498
RPMI-8226 = tested on: RPMI-8226

SMILES: Clc1ccc(-c2c(C3=NCCCN3)nnn2-c2ccccc2)cc1
- GI50 (786-0): > 100 µM (inactive)
- GI50 (A498): > 100 µM (inactive)
- GI50 (A549): > 100 µM (inactive)
- GI50 (ACHN): > 100 µM (inactive)
- GI50 (CAKI-1): > 100 µM (inactive)
- GI50 (CCRF-CEM): 35.9 µM (inactive)
- GI50 (COLO 205): 34.9 µM (inactive)
- GI50 (DLD-1): 75 µM (inactive)
- GI50 (DMS-114): 47.2 µM (inactive)
- GI50 (DMS-273): > 100 µM (inactive)
- GI50 (EKVX): > 100 µM (inactive)
- GI50 (HCC 2998): > 100 µM (inactive)
- GI50 (HCT-116): 43.1 µM (inactive)
- GI50 (HCT-15): 43.6 µM
- GI50 (HL-60): 17.6 µM (inactive)
- GI50 (HOP-18): > 100 µM (inactive)
- GI50 (HOP-62): > 100 µM (inactive)
- GI50 (HOP-92): 34.9 µM (inactive)
- GI50 (HT-29): 40.1 µM (inactive)
- GI50 (IGROV-1): > 100 µM (inactive)
- GI50 (K562): 41.7 µM (inactive)
- GI50 (KM-20L2): 33.9 µM (inactive)
- GI50 (KM12): > 100 µM (inactive)
- GI50 (LOX IMVI): 24.9 µM (inactive)
- GI50 (LXFL 529): > 100 µM (inactive)
- GI50 (M14): > 100 µM (inactive)
- GI50 (M19-MEL): 69.5 µM (inactive)
- GI50 (MOLT-4): > 100 µM (inactive)
- GI50 (Malme-3M): > 100 µM (inactive)
- GI50 (NCI-H226): > 100 µM (inactive)
- GI50 (NCI-H23): > 100 µM (inactive)
- GI50 (NCI-H460): 33.6 µM (inactive)
- GI50 (NCI-H522): > 100 µM (inactive)
- GI50 (OVCAR-3): > 100 µM (inactive)
- GI50 (OVCAR-4): > 100 µM (inactive)
- GI50 (OVCAR-5): 67 µM (inactive)
- GI50 (OVCAR-8): > 100 µM (inactive)
- GI50 (RXF 393): > 100 µM (inactive)
- GI50 (RXF 631): 75.3 µM (inactive)
- GI50 (SF-268): > 100 µM (inactive)
- GI50 (SF-295): > 100 µM (inactive)
- GI50 (SF-539): > 100 µM (inactive)
- GI50 (SK-MEL-28): > 100 µM (inactive)
- GI50 (SK-MEL-2): > 100 µM (inactive)
- GI50 (SK-MEL-5): > 100 µM (inactive)
- GI50 (SK-OV-3): > 100 µM (inactive)
- GI50 (SN12C): > 100 µM (inactive)
- GI50 (SNB-19): > 100 µM (inactive)
- GI50 (SNB-75): > 100 µM (inactive)
- GI50 (SNB-78): > 100 µM (inactive)
- GI50 (SR): 56.1 µM (inactive)
- GI50 (SW-620): 20.2 µM (inactive)
- GI50 (TK-10): > 100 µM (inactive)
- GI50 (U-251): > 100 µM (inactive)
- GI50 (UACC-257): > 100 µM (inactive)
- GI50 (UACC-62): > 100 µM (inactive)
- GI50 (UO-31): 71.9 µM (inactive)
- GI50 (XF498): > 100 µM (inactive)

SMILES: Clc1cccc(N2CCN(CCCN3CCc4c([nH]c5ccccc45)C3c3cccnc3)CC2)c1 (configuration not stated)
- GI50 (786-0): 3.29 µM (inactive)
- GI50 (A498): 10.4 µM (inactive)
- GI50 (A549): 7.78 µM (inactive)
- GI50 (ACHN): 12.4 µM (inactive)
- GI50 (CAKI-1): 9.68 µM (inactive)
- GI50 (CCRF-CEM): 6.76 µM (inactive)
- GI50 (COLO 205): 2.88 µM (inactive)
- GI50 (DLD-1): 11.2 µM (inactive)
- GI50 (DMS-114): 5.52 µM (inactive)
- GI50 (DMS-273): 5.98 µM (inactive)
- GI50 (EKVX): 15.3 µM (inactive)
- GI50 (HCT-116): 5.78 µM (inactive)
- GI50 (HCT-15): 8.81 µM
- GI50 (HL-60): 2.46 µM (inactive)
- GI50 (HOP-18): 14.3 µM (inactive)
- GI50 (HOP-62): 14.3 µM (inactive)
- GI50 (HOP-92): 8.69 µM (inactive)
- GI50 (HT-29): 3.89 µM (inactive)
- GI50 (IGROV-1): 29.6 µM (inactive)
- GI50 (K562): 3.78 µM (inactive)
- GI50 (KM-20L2): 4.28 µM (inactive)
- GI50 (KM12): > 10 µM (inactive)
- GI50 (LOX IMVI): 8.17 µM (inactive)
- GI50 (LXFL 529): 6.52 µM (inactive)
- GI50 (M14): 2.01 µM (inactive)
- GI50 (M19-MEL): 10.5 µM (inactive)
- GI50 (MOLT-4): 3.88 µM (inactive)
- GI50 (Malme-3M): 2.54 µM (inactive)
- GI50 (NCI-H226): 18.1 µM (inactive)
- GI50 (NCI-H23): 10.7 µM (inactive)
- GI50 (NCI-H460): 6.22 µM (inactive)
- GI50 (NCI-H522): 11.8 µM (inactive)
- GI50 (OVCAR-3): 2.67 µM (inactive)
- GI50 (OVCAR-4): 6.98 µM (inactive)
- GI50 (OVCAR-5): 7.66 µM (inactive)
- GI50 (OVCAR-8): 10.8 µM (inactive)
- GI50 (RPMI-8226): 6.15 µM (inactive)
- GI50 (RXF 393): 1.58 µM (inactive)
- GI50 (RXF 631): 3.63 µM (inactive)
- GI50 (SF-295): 6.92 µM (inactive)
- GI50 (SF-539): 3.61 µM (inactive)
- GI50 (SK-MEL-28): 3.6 µM (inactive)
- GI50 (SK-MEL-2): 11 µM (inactive)
- GI50 (SK-MEL-5): 5.32 µM (inactive)
- GI50 (SK-OV-3): 14.6 µM (inactive)
- GI50 (SN12C): 12.8 µM (inactive)
- GI50 (SNB-19): 20.6 µM (inactive)
- GI50 (SNB-75): 11 µM (inactive)
- GI50 (SNB-78): 5.69 µM (inactive)
- GI50 (SR): 2.29 µM (inactive)
- GI50 (SW-620): 13 µM (inactive)
- GI50 (TK-10): > 10 µM (inactive)
- GI50 (U-251): 10.7 µM (inactive)
- GI50 (UACC-257): 4.34 µM (inactive)
- GI50 (UACC-62): > 10 µM (inactive)
- GI50 (UO-31): 5.15 µM (inactive)
- GI50 (XF498): 4.58 µM (inactive)

SMILES: Cc1ccccc1C(=O)c1cc(O)ccc1O
- GI50 (786-0): > 100 µM (inactive)
- GI50 (A498): > 100 µM (inactive)
- GI50 (A549): > 100 µM (inactive)
- GI50 (ACHN): > 100 µM (inactive)
- GI50 (CAKI-1): > 100 µM (inactive)
- GI50 (CCRF-CEM): > 100 µM (inactive)
- GI50 (COLO 205): 50.6 µM (inactive)
- GI50 (DLD-1): 55.7 µM (inactive)
- GI50 (DMS-114): 45.7 µM (inactive)
- GI50 (DMS-273): 42.3 µM (inactive)
- GI50 (EKVX): > 100 µM (inactive)
- GI50 (HCC 2998): 53.8 µM (inactive)
- GI50 (HCT-116): > 100 µM (inactive)
- GI50 (HCT-15): 50.1 µM
- GI50 (HL-60): 31.8 µM (inactive)
- GI50 (HOP-18): > 100 µM (inactive)
- GI50 (HOP-62): > 100 µM (inactive)
- GI50 (HOP-92): > 100 µM (inactive)
- GI50 (HT-29): 35.9 µM (inactive)
- GI50 (IGROV-1): 99.5 µM (inactive)
- GI50 (K562): 35 µM (inactive)
- GI50 (KM-20L2): 32.6 µM (inactive)
- GI50 (KM12): 43 µM (inactive)
- GI50 (LXFL 529): > 100 µM (inactive)
- GI50 (M14): > 100 µM (inactive)
- GI50 (M19-MEL): > 100 µM (inactive)
- GI50 (MOLT-4): > 100 µM (inactive)
- GI50 (Malme-3M): > 100 µM (inactive)
- GI50 (NCI-H226): > 100 µM (inactive)
- GI50 (NCI-H23): 65 µM (inactive)
- GI50 (NCI-H460): 85.9 µM (inactive)
- GI50 (NCI-H522): 27.2 µM (inactive)
- GI50 (OVCAR-3): > 100 µM (inactive)
- GI50 (OVCAR-4): > 100 µM (inactive)
- GI50 (OVCAR-5): > 100 µM (inactive)
- GI50 (OVCAR-8): > 100 µM (inactive)
- GI50 (RPMI-8226): > 100 µM (inactive)
- GI50 (RXF 393): > 100 µM (inactive)
- GI50 (RXF 631): > 100 µM (inactive)
- GI50 (SF-268): > 100 µM (inactive)
- GI50 (SF-295): > 100 µM (inactive)
- GI50 (SF-539): > 100 µM (inactive)
- GI50 (SK-MEL-2): 34.6 µM (inactive)
- GI50 (SK-MEL-5): > 100 µM (inactive)
- GI50 (SK-OV-3): > 100 µM (inactive)
- GI50 (SN12C): > 100 µM (inactive)
- GI50 (SNB-19): > 100 µM (inactive)
- GI50 (SNB-75): 76.2 µM (inactive)
- GI50 (SNB-78): > 100 µM (inactive)
- GI50 (SR): 78 µM (inactive)
- GI50 (SW-620): 37.1 µM (inactive)
- GI50 (TK-10): > 100 µM (inactive)
- GI50 (U-251): 50.7 µM (inactive)
- GI50 (UACC-257): > 100 µM (inactive)
- GI50 (UACC-62): 65 µM (inactive)
- GI50 (UO-31): > 100 µM (inactive)
- GI50 (XF498): > 100 µM (inactive)

From ChEMBL document CHEMBL1201862, “PubChem BioAssay data set” (2004)
